Results: PubChem BioAssay AID493085 (Broad Institute, 2011)
Results filed as inconclusive are left out. Calls of active or inactive are those of the source.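 Rule for the calls: active = falling-signal curve with half-maximal concentration at or below ten times the top tested dose; inconclusive = flat fit at 30 to 70% inhibition, or poor fit; inactive = signal rise, flat within 30%, or potency beyond limit.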

tested on: NIH3T3 R4 HSE-GFP/Tet-RFP reporter, fluorescence, 48 h; test: Tet-On RFP internal-standard readout, HSF1 screen, dose response, cell-based, NIH3T3 R4, HSE-GFP and Tet-On RFP, cherry-pick, set 3 (AID 493085);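 note: cells heat shocked 2 h at 42 °C with doxycycline to induce reporters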

SMILES	AC50
C#CC(=O)N(c1cc(OC)ccc1OC)C(C(=O)NC1CCCC1)c1cccs1 (stereo unspecified)	5.39 µM
CC12CCC(C/C1=N\N=C1\NC(=O)/C(=C\c3ccc(Cl)cc3)S1)C2(C)C (stereo unspecified)	1.82 µM
COc1ccccc1NC(=O)c1nc(S(=O)(=O)Cc2ccccc2)ncc1Cl	4.02 µM
Fc1ccc(-n2cc(-c3ccccc3)c3c(N4CCOCC4)ncnc32)cc1	6.34 µM
CCOc1cc(/C=N/NC(=O)c2cccc(S(=O)(=O)N3CCOCC3)c2)ccc1OCC(=O)N(C)C	> 19.5 µM (inactive)
NNC(=O)c1ccc(N2CCc3ccccc32)c([N+](=O)[O-])c1	> 19.5 µM (inactive)
Cc1cccc(C(=O)NC(=S)N2CCN(c3ccc([N+](=O)[O-])cc3)CC2)c1	> 19.5 µM (inactive)
COc1ccc(C)cc1NS(=O)(=O)c1ccc(-c2cnc(C3CC3)o2)cc1	2.11 µM
CCNC(=S)N(C)CCc1cc2c(c(OC)c1C=C1C(=O)N(C)C(=O)N(C)C1=O)OCO2	> 19.5 µM (inactive)
COc1ccc(C(=O)c2c(C(F)(F)F)oc3c2C(=O)c2ccccc2C3=O)cc1	2.89 µM
Cc1ccc(OCC(=O)c2cc(C)n(-c3ccccc3)c2C)c([N+](=O)[O-])n1	8.65 µM
Nc1nc(F)nc2c1ncn2[C@@H]1O[C@H](CO)[C@@H](O)[C@H]1O	0.981 µM
O=C1C(Nc2ccccc2)=C/C(=N/S(=O)(=O)c2cccs2)c2ccccc21	9.58 µM
CC(C)(C)c1ccc2c(c1)OC(C(=O)N/N=C\c1ccc[nH]1)CO2 (stereo unspecified)	0.182 µM
CCCCCCc1cc2cc(S(=O)(=O)c3ccc(F)c(Cl)c3)c(=O)oc2cc1O	1.52 µM
O=C(NCc1ccncc1)C(=O)Nc1nc(C23CC4CC(CC(C4)C2)C3)cs1	12 µM
O=C(NCCN1CCCCC1)Nc1ccccc1Cl	> 19.5 µM (inactive)
CC1(C)C[C@H]2C=C(C=O)[C@]3(C=O)C[C@]3(C)[C@H]2C1	17.9 µM
COc1ccc2c(c1)c(CC(=O)Nc1nnc(C3CC3)s1)c(C)n2C(=O)c1ccc(Cl)cc1	0.284 µM
CCCCn1c(=O)[nH]c(=O)c2c1nc(Cn1ncc(Cl)c(Cl)c1=O)n2CCC	18.2 µM
CCN1C/C(=C/c2ccc(OC)c(O)c2)C(=O)/C(=C/c2ccc(OC)c(O)c2)C1	1.8 µM
CCOC(=O)c1sc(NC(=O)CSc2n[nH]c(-c3ccccc3)n2)c(C#N)c1C	14.6 µM
N#Cc1cccc(C#N)c1Oc1ccc(S(=O)(=O)Nc2ccc(Cl)cc2)cc1	18.8 µM
O=C1C(Cl)=C(Nc2ccc3cn[nH]c3c2)C(=O)c2ccccc21	5.26 µM
CCOc1c2ccc(C(=O)NCc3ccccc3OC)cc2nn1CC	> 19.5 µM (inactive)
Cc1cc(Nc2ccc3c(c2)OCCO3)c2cc(Cl)ccc2n1	> 19.5 µM (inactive)

SMILES	AC50
Cc1nc2c(-c3ccccc3)c(C)[nH]n2c(=O)c1Cl	> 19.5 µM (inactive)
O=C(CNC(=S)N(CCCN1CCOCC1)Cc1cccs1)NCc1ccccc1Cl	> 19.5 µM (inactive)
COC(=O)/C(=C1/Oc2cc(C)oc(=O)c2S1)C(F)(F)F	1.5 µM
c1ccc(OCCSc2nc3ccccc3o2)cc1	> 19.5 µM (inactive)
CCCS(=O)(=O)N1CCc2cc(OC)c(OC)cc2C1	> 10 µM (inactive)
COc1ccc(N(Cc2cc3cc(OC)ccc3[nH]c2=O)S(=O)(=O)c2ccc(NC(C)=O)cc2)cc1	14.3 µM
CCCCN(C(=O)COc1ccc(C)cc1OC)c1c(N)n(CCC)c(=O)[nH]c1=O	> 19.5 µM (inactive)
CCOc1cc2c(cc1OCC)C(c1ccc(OC)cc1)N(c1ccccc1)C(=O)C2 (stereo unspecified)	> 19.5 µM (inactive)
CC(C)(C)C(=O)NC(=S)NNC(=O)c1sc2ccccc2c1Cl	> 19.5 µM (inactive)
Cn1c(C(C#N)C(=O)c2sc3ccccc3c2Cl)nc2ccccc21 (stereo unspecified)	> 19.5 µM (inactive)
CC1CC(C)CN(C(=O)c2ccc(CSc3nc4ccncc4[nH]3)cc2)C1 (stereo unspecified)	13.3 µM
CC(C)c1ccc(-c2nc3ccccc3s2)cc1	> 19.5 µM (inactive)
CCOC(=O)/C(=C\c1ccc([N+](=O)[O-])cc1)C(=O)c1cc(C(C)=O)c(Nc2ccccc2)s1	6.97 µM
Cc1ccc(C)c(NC(=O)CCc2nnc3ccc(NCc4ccco4)nn23)c1	> 19.5 µM (inactive)
CC1=C(C(=O)OCc2ccc3c(c2)OCO3)C(c2ccc(F)cc2)NC(=O)N1 (stereo unspecified)	0.27 µM
O=S(=O)(Nc1cccc(Oc2cnccn2)c1)c1ccc(F)cc1	> 19.5 µM (inactive)
N#CC1=C(N)Oc2cc(N)ccc2C1c1ccccc1Cl (stereo unspecified)	> 19.5 µM (inactive)
Cc1cc([N+](=O)[O-])c2ccccc2[n+]1[O-]	15.6 µM
Cc1oc2c(c1C(=O)NCc1cccnc1)C(=O)c1ccccc1C2=O	0.891 µM
CCOC(=O)c1ccc(-n2[nH]c(-c3ccccc3)cc2=O)cc1	4.13 µM
Cc1ccccc1NC(=O)COC(=O)c1ccc(S(C)(=O)=O)c([N+](=O)[O-])c1	18.3 µM
CC(=O)c1ccc(NC(=O)C2CCN(S(=O)(=O)c3cccc4cccnc34)CC2)cc1	> 19.5 µM (inactive)
CN=C1S/C(=C\c2cc(C)n(-c3ccccc3F)c2C)C(=O)N1C	16.5 µM
CCSc1nnc(NC(=O)C(Cc2ccccc2)n2cccc2)s1 (stereo unspecified)	> 19.5 µM (inactive)
COc1ccc(NCc2nnc(SCC(=O)Nc3cc(C(F)(F)F)ccc3Cl)o2)cc1	> 19.5 µM (inactive)
Cc1occc1C(=O)Nc1cc(C(F)(F)F)ccc1Cl	> 19.5 µM (inactive)

SMILES	AC50
CC(Nc1ncnc2sccc12)c1ccccc1 (stereo unspecified)	0.349 µM
O=C(Nc1nnc(S(=O)(=O)N2CCCCCC2)s1)c1cccc(Br)c1	0.889 µM
CCOC(=O)N=Nc1c2ccccc2c2nc3no[nH]c3nc12	1.91 µM
Cc1ccc(-n2ncc(Br)c(Br)c2=O)cc1	18.3 µM
Cc1cc(C)nc(NNC2=CC(=[N+]3CCCCC3)CC(C)(C)C2)n1	14.5 µM
CCc1cc(C)cc(OCCNC(=O)c2cncc(Br)c2)c1	> 19.5 µM (inactive)
CCOC(=O)c1c(C)[nH]c2c1-c1ccccc1C(=O)C2=O	1.07 µM
CCOCCn1c(SCC(=O)OCc2ccccc2)nc2c1c(=O)[nH]c(=O)n2C	> 19.5 µM (inactive)
CS(=O)(=O)c1nc(-c2ccccc2)cc(C(F)(F)F)n1	1.81 µM
COc1ccc2[nH]c3c(=O)n(CCCN4CCOCC4)cnc3c2c1	> 19.5 µM (inactive)
CN=c1scc(-c2ccco2)n1/N=C/c1ccc(O)c(O)c1	3.01 µM
CCOc1ccc(-n2c(C)c(C(C)=O)c3cc(OC(C)=O)ccc32)cc1	2.24 µM
Cc1nc2c(-c3ccccc3)cnn2c(N)c1-c1ccccc1	> 19.5 µM (inactive)
COc1cc2c(cc1OC)C(c1ccc(-c3ccc(Cl)c(Cl)c3)o1)=NCC2	18.8 µM
COc1ccc(N2CCN(C(CNC(=O)C(=O)NCc3ccncc3)c3ccco3)CC2)cc1 (stereo unspecified)	> 19.5 µM (inactive)
NC(=O)c1cc2ccncc2c2ccccc12	0.805 µM
O=c1c2ccc(Cl)cc2nc(-c2cccc(C(F)(F)F)c2)n1O	18.2 µM
CC1(C)CC(NC(=O)COc2ccccc2Cl)CC(C)(C)N1	> 19.5 µM (inactive)
CC1C/C(=N/Nc2nc3ccccc3[nH]2)CC(C)(C)C1 (stereo unspecified)	> 19.5 µM (inactive)
CCCCCn1c(=O)c(C(=O)Nc2ccccn2)c(O)c2ccccc21	1.4 µM
O=C(Nc1ccccc1N1CCCCC1)C1CCN(C(=O)c2ccc(Cl)cc2)CC1	> 19.5 µM (inactive)
CCc1ccc(C2=NNC(=Nc3cccc(S(=O)(=O)N(C)C)c3)SC2)cc1	2 µM
O=c1c(Cl)c(Cl)cnn1-c1ccccc1	14.4 µM
Cn1c(-c2nonc2N)nc2ccccc21	> 19.5 µM (inactive)
